Data taken from patent US20120184594A1, “PHENYLPYRROLIDINE COMPOUNDS” (Ferrer Internacional S.A., priority 2007, published 2012).

Tests used:
[1] = molecular target: T1, recombinant human MT1 receptor (Homo sapiens, UniProt P48039); assay: Agonist activity on MT1 receptors (aequorin luminescence, Gα16 co-expressing cell line); format: cell-based; conditions: percentage activity with respect to the reference agonist at its EC100; for MT1 agonism 1 nM: compound at 1 nM; for MT1 agonism 100 nM: compound at 100 nM, in %
T1 construct: expressed in transfected cells; host or cells: unnamed cell line co-expressing mitochondrial apoaequorin and the Gα16 subunit
T1 sequence (P48039 whole entry): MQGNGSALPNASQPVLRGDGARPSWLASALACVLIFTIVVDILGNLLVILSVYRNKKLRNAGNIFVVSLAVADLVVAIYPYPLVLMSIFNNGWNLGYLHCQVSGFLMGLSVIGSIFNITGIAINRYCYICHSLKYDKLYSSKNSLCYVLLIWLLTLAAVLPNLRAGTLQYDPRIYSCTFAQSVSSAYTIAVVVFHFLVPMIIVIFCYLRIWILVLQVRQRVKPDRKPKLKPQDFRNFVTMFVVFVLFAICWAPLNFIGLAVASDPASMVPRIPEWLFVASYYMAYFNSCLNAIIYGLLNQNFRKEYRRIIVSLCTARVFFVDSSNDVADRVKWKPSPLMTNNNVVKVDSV
Excerpt: Determination of the agonist activity on MT1 receptors
In order to screen compounds for the MT1 receptor a cell line is used that is characterised by stable overexpression of the recombinant human MT1 receptor in a cell line that in turn co-expresses mitochondrial apoaequorin and the Gα16 subunit.
The Gα16 subunit belongs to the G protein family, formed by GPCR, wherein the transduction of intracellular signals occurs via phospholipase (PLC). PLC activation produces an increase in inositol-triphosphate levels that leads to an increase in intracellular calcium. Gα16 overexpression thus allows an increase in intracellular calcium levels that is independent and compatible with the study receptor's own signal transduction pathway.
Following its binding to calcium, the aequorin oxidises coelenterazine to coelenteramide, a reaction that releases CO2 and light.
The trial protocol for the screening of possible agonists consists in collecting the cells and keeping them in suspension overnight in the presence of coelenterazine in order to reconstitute aequorin. On the following day the cells are injected on a plate where the compounds to be screened are diluted, and the luminescence released is read immediately. When wishing to study the possible antagonism of the same compounds, the reference agonist compound is added in the same well after 15-30 min from the first injection and the luminescence released is assessed.
Agonist activity is calculated as percentage activity with respect to the reference agonist at the concentration corresponding to its EC100. Antagonist activity is expressed as percentage inhibition over the reference agonist activity at the concentration corresponding to its EC80.

[2] = background statement; cited from earlier work
[3] = Metabolic stability by incubation in human microsomes; format: in vitro ADME; conditions: disappearance of compound, 120 min, 1 μM
Excerpt: (§1) Moreover, the compounds of the present invention advantageously provide relevant pharmacokinetic improvements.

[4] = Rat plasma levels and brain/plasma ratio after administration; format: in vivo; conditions: 15 min after administration of 1 mg/Kg; for concentration at 15 min: plasma
Excerpt: as §1

| Molecule | MT1 agonism 1 nM [1] [%] | MT1 agonism 100 nM [1] | clearance [2] [%] | metabolic stability [3] | concentration at 15 min [4] [ng/mL] | Kp at 0.25 h ([4]; brain/plasma) |
| --- | --- | --- | --- | --- | --- | --- |
| CCC(=O)N[C@H]1CCN(c2cccc(OC)c2)C1 [Example 3, (S)—N-[1-(3-methoxy-phenyl)-pyrrolidin-3-yl]-propionamide] | 46.7 | 109.9 | – | – | – | – |
| COc1cccc(N2CC[C@H](NC(C)=O)C2)c1 [Example 4, (S)—N-[1-(3-methoxy-phenyl)-pyrrolidin-3-yl]-acetamide] | 34.4 | 102.7 | – | – | – | – |
| (S)-[1-(3-methoxy-phenyl)-pyrrolidin-3-yl]-butyramide [Example 7] | 33.4 | 99.6 | – | – | – | – |
| COc1ccc2[nH]cc(CCNC(C)=O)c2c1 [Melatonin, reference compound] | 51.8 | 100.5 | – | – | – | – |
| CCC(=O)NCC[C@@H]1CCc2ccc3c(c21)CCO3 [Ramelteon, N-[2-[(8S)-1,6,7,8-tetrahydro-2H-indeno[5,4-b]furan-8-yl)ethyl]propionamide, reference compound] | 50 | 117.5 | 88 | – | – | – |
| CCC(=O)NCC[C@@H]1CCc2ccc(OC)cc21 [(1S)—N-[2-(6-methoxy-indan-1-yl)ethyl]-propionamide, reference compound] | – | – | – | less than 30% | 10.1 | – |
| COc1cccc(N2CC[C@H](NC(=O)CC(C)C)C2)c1 [Example 8, (S)—N-[1-(3-methoxy-phenyl)-pyrrolidin-3-yl]-3-methyl-butyramide] | 50.1 | 110.3 | – | – | 15.1 | 1 |
